Test system: 485368-065-R3-J5-PDC spheroids with HUVEC/MSC, viability
Assay: Anticancer human tumor 485368-065-R3-J5-PDC patient-derived pancreatic carcinoma cell line growth inhibition [RAS]
Conditions: for IC50: curve of first compound; for viability, T/C: stronger effect = lower value
Method in brief: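 Agents were tested in combination matrices in half-log decrements from a top concentration at or near clinical Cmax (10 microM if undetermined). Targets were multi-cell spheroids of tumour lines plus HUVEC and MSC stromal cells.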

[1] = second compound 0.00316 µM, first compound 0.0316 µM
[2] = second compound 0.00316 µM, first compound 0.1 µM
[3] = second compound 0.00316 µM, first compound 0.316 µM
[4] = second compound 0.00316 µM, first compound 1 µM
[5] = second compound 0.00316 µM, first compound 3.16 µM
[6] = second compound 0.00316 µM, first compound 10 µM
[7] = second compound 0.01 µM, first compound 0.0316 µM
[8] = second compound 0.01 µM, first compound 0.1 µM
[9] = second compound 0.01 µM, first compound 0.316 µM
[10] = second compound 0.01 µM, first compound 1 µM
[11] = second compound 0.01 µM, first compound 3.16 µM
[12] = second compound 0.01 µM, first compound 10 µM
[13] = second compound 0.0316 µM, first compound 0.0316 µM
[14] = second compound 0.0316 µM, first compound 0.1 µM
[15] = second compound 0.0316 µM, first compound 0.316 µM
[16] = second compound 0.0316 µM, first compound 1 µM
[17] = second compound 0.0316 µM, first compound 3.16 µM
[18] = second compound 0.0316 µM, first compound 10 µM
[19] = second compound 0.1 µM, first compound 0.0316 µM
[20] = second compound 0.1 µM, first compound 0.1 µM
[21] = second compound 0.1 µM, first compound 0.316 µM
[22] = second compound 0.1 µM, first compound 1 µM
[23] = second compound 0.1 µM, first compound 3.16 µM
[24] = second compound 0.1 µM, first compound 10 µM
[25] = second compound 0.316 µM, first compound 0.0316 µM
[26] = second compound 0.316 µM, first compound 0.1 µM
[27] = second compound 0.316 µM, first compound 0.316 µM
[28] = second compound 0.316 µM, first compound 1 µM
[29] = second compound 0.316 µM, first compound 3.16 µM
[30] = second compound 0.316 µM, first compound 10 µM
[31] = second compound 1 µM, first compound 0.0316 µM
[32] = second compound 1 µM, first compound 0.1 µM
[33] = second compound 1 µM, first compound 0.316 µM
[34] = second compound 1 µM, first compound 1 µM
[35] = second compound 1 µM, first compound 3.16 µM
[36] = second compound 1 µM, first compound 10 µM
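Note: spheroids exposed to agents for seven days before readout.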

## CC1(O)CCCC1n1c(=O)c(C(F)F)cc2cnc(NC3CCN(S(C)(=O)=O)CC3)nc21 (stereo unspecified) + C=CC(=O)N1CCN(c2nc(OCC3CCCN3C)nc3c(F)c(-c4nc(N)cc(C)c4C(F)(F)F)c(Cl)cc23)C(C)C1
Second compound 0.00316 µM
  IC50: 402 nM
Second compound 0.01 µM
  IC50: 314 nM
Second compound 0.0316 µM
  IC50: 298 nM
Second compound 0.1 µM
  IC50: 258 nM
Second compound 0.316 µM
  IC50: 429 nM
Second compound 1 µM
  IC50: 750 nM
[1]
  viability, T/C: 109%
[2]
  viability, T/C: 68.7%
[3]
  viability, T/C: 46.7%
[4]
  viability, T/C: 48.2%
[5]
  viability, T/C: 40.6%
[6]
  viability, T/C: 11.1%
[7]
  viability, T/C: 107%
[8]
  viability, T/C: 69.5%
[9]
  viability, T/C: 45.3%
[10]
  viability, T/C: 38.8%
[11]
  viability, T/C: 42.1%
[12]
  viability, T/C: 12.6%
[13]
  viability, T/C: 99.3%
[14]
  viability, T/C: 62.2%
[15]
  viability, T/C: 44.4%
[16]
  viability, T/C: 42.2%
[17]
  viability, T/C: 45.9%
[18]
  viability, T/C: 11.3%
[19]
  viability, T/C: 93.9%
[20]
  viability, T/C: 62.8%
[21]
  viability, T/C: 38.3%
[22]
  viability, T/C: 41.9%
[23]
  viability, T/C: 47.6%
[24]
  viability, T/C: 10.6%
[25]
  viability, T/C: 99.7%
[26]
  viability, T/C: 64.8%
[27]
  viability, T/C: 51.8%
[28]
  viability, T/C: 42%
[29]
  viability, T/C: 43.4%
[30]
  viability, T/C: 12.5%
[31]
  viability, T/C: 109%
[32]
  viability, T/C: 60%
[33]
  viability, T/C: 41.3%
[34]
  viability, T/C: 55.7%
[35]
  viability, T/C: 44.9%
[36]
  viability, T/C: 11.1%

## CCN1CCN(Cc2ccc(Nc3ncc(F)c(-c4cc(F)c5nc(C)n(C(C)C)c5c4)n3)nc2)CC1 + C=CC(=O)N1CCN(c2nc(OCC3CCCN3C)nc3c(F)c(-c4nc(N)cc(C)c4C(F)(F)F)c(Cl)cc23)C(C)C1
Second compound 0.00316 µM
  IC50: 316 nM
Second compound 0.01 µM
  IC50: 300 nM
Second compound 0.0316 µM
  IC50: 454 nM
Second compound 0.1 µM
  IC50: 644 nM
Second compound 0.316 µM
  IC50: 604 nM
Second compound 1 µM
  IC50: 627 nM
Second compound 0.00316 µM, first compound 0.00316 µM
  viability, T/C: 107%
Second compound 0.00316 µM, first compound 0.01 µM
  viability, T/C: 95.8%
[1]
  viability, T/C: 82.5%
[2]
  viability, T/C: 61.7%
[3]
  viability, T/C: 48.1%
[4]
  viability, T/C: 47%
Second compound 0.01 µM, first compound 0.00316 µM
  viability, T/C: 107%
Second compound 0.01 µM, first compound 0.01 µM
  viability, T/C: 96.7%
[7]
  viability, T/C: 81.3%
[8]
  viability, T/C: 64.3%
[9]
  viability, T/C: 49.6%
[10]
  viability, T/C: 38%
Second compound 0.0316 µM, first compound 0.00316 µM
  viability, T/C: 106%
Second compound 0.0316 µM, first compound 0.01 µM
  viability, T/C: 98.8%
[13]
  viability, T/C: 82.1%
[14]
  viability, T/C: 73.4%
[15]
  viability, T/C: 52.9%
[16]
  viability, T/C: 40.5%
Second compound 0.1 µM, first compound 0.00316 µM
  viability, T/C: 94.8%
Second compound 0.1 µM, first compound 0.01 µM
  viability, T/C: 88.1%
[19]
  viability, T/C: 90.1%
[20]
  viability, T/C: 76.8%
[21]
  viability, T/C: 60.2%
[22]
  viability, T/C: 43.8%
Second compound 0.316 µM, first compound 0.00316 µM
  viability, T/C: 97.5%
Second compound 0.316 µM, first compound 0.01 µM
  viability, T/C: 96.2%
[25]
  viability, T/C: 81%
[26]
  viability, T/C: 65.5%
[27]
  viability, T/C: 62.4%
[28]
  viability, T/C: 42.7%
Second compound 1 µM, first compound 0.00316 µM
  viability, T/C: 106%
Second compound 1 µM, first compound 0.01 µM
  viability, T/C: 88.3%
[31]
  viability, T/C: 80.3%
[32]
  viability, T/C: 68%
[33]
  viability, T/C: 57.3%
[34]
  viability, T/C: 44.8%

## C[C@@H](NC(=O)c1ncnc(N)c1Cl)c1ncc(C(=O)Nc2cc(C(F)(F)F)c(Cl)cn2)s1 + C=CC(=O)N1CCN(c2nc(OCC3CCCN3C)nc3c(F)c(-c4nc(N)cc(C)c4C(F)(F)F)c(Cl)cc23)C(C)C1
Second compound 0.00316 µM
  IC50: > 10000 nM
Second compound 0.01 µM
  IC50: > 10000 nM
Second compound 0.0316 µM
  IC50: > 10000 nM
Second compound 0.1 µM
  IC50: > 10000 nM
Second compound 0.316 µM
  IC50: > 10000 nM
Second compound 1 µM
  IC50: > 10000 nM
[1]
  viability, T/C: 119%
[2]
  viability, T/C: 99.9%
[3]
  viability, T/C: 104%
[4]
  viability, T/C: 95%
[5]
  viability, T/C: 86.6%
[6]
  viability, T/C: 73.7%
[7]
  viability, T/C: 103%
[8]
  viability, T/C: 105%
[9]
  viability, T/C: 95.8%
[10]
  viability, T/C: 104%
[11]
  viability, T/C: 92.1%
[12]
  viability, T/C: 77%
[13]
  viability, T/C: 107%
[14]
  viability, T/C: 94.8%
[15]
  viability, T/C: 104%
[16]
  viability, T/C: 104%
[17]
  viability, T/C: 91.8%
[18]
  viability, T/C: 78.6%
[19]
  viability, T/C: 108%
[20]
  viability, T/C: 103%
[21]
  viability, T/C: 107%
[22]
  viability, T/C: 103%
[23]
  viability, T/C: 94.6%
[24]
  viability, T/C: 77%
[25]
  viability, T/C: 104%
[26]
  viability, T/C: 106%
[27]
  viability, T/C: 107%
[28]
  viability, T/C: 102%
[29]
  viability, T/C: 98.6%
[30]
  viability, T/C: 80.2%
[31]
  viability, T/C: 105%
[32]
  viability, T/C: 111%
[33]
  viability, T/C: 94.7%
[34]
  viability, T/C: 104%
[35]
  viability, T/C: 96.5%
[36]
  viability, T/C: 81.4%
